Assay results published in US7544676B2, “Sulfamoyl benzamides and methods of their use” (Adolor Corporation, priority 2005, dated 2009).

Tests used:
CB2 receptor [1] = molecular target: T1, CB2 receptor (Homo sapiens, UniProt P34972); assay: Inhibition of [3H]CP55940 binding to cloned human CB2 receptor membranes
T1 construct: expressed in transfected cells; host or cells: CHO-K1
Description: (§1) Ki values in receptor binding experiments were determined by Cheng-Prusoff correction of IC50 values derived from automated nonlinear regression analysis of sigmoidal titration curves using a three-parameter modification (slope set to 1.0) of the four-parameter equation described in Cheng, Y.-C. and W. H. Prusoff, Biochem. Pharmacol. 22:3099-3108 (1973) and DeLean et al., Am. J. Physiol. 235:E97-E102 (1978).
(§2) Chinese hamster ovary cells (CHO-K1), stably transfected with either hCB1 or hCB2, were washed two times with cold PBS, scraped from 500 cm^2 tissue culture plates, and pelleted by centrifugation at 1000×g for 10 min. […]
(§3) Binding assays were performed by incubating 0.2-0.6 nM (34,000-100,000 dpm) [^3H]CP55940 with membranes prepared from cells expressing cloned human CB1 or CB2 receptors in buffer A (50 mM Tris HCl, pH 7.0, 5.0 mM MgCl2, 1.0 mM EGTA and 1.0 mg/mL fatty acid free bovine serum albumin). […] The filters were rinsed 6 times with one mL of cold wash buffer (50 mM Tris HCl, pH 7.0, 5.0 mM MgCl2, 1.0 mM EGTA and 0.75 mg/mL fatty acid free bovine serum albumin), 30 μL of MicroScint 20 was added to each filter and the radioactivity on the filters determined by scintillation spectroscopy. Nonspecific binding was determined in the presence of 10 μM WIN55212-2.

CB1 receptor [2] = molecular target: T2, CB1 receptor (Homo sapiens, UniProt P21554); assay: Inhibition of [3H]CP55940 binding to cloned human CB1 receptor membranes
T2 construct: expressed in transfected cells; host or cells: CHO-K1
T2 sequence (P21554 whole entry): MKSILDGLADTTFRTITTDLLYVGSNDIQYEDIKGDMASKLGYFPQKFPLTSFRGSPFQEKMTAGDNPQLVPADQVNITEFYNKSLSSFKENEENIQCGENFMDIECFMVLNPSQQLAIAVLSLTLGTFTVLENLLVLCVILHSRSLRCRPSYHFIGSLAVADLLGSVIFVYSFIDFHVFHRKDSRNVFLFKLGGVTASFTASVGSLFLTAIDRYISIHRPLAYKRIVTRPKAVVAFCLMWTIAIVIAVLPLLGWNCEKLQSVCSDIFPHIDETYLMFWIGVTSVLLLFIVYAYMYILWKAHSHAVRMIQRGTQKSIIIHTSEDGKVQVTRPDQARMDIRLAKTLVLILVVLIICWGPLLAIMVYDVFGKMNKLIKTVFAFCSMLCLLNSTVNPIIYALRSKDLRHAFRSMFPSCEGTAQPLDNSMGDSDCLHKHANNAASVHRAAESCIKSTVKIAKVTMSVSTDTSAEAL
Description: as §1, §2, §3

CB1 receptor [3] = molecular target: T2, CB1 receptor; assay: hCB1-mediated stimulation of [35S]GTPγS binding; assay type: biochemical; details: in vitro functional assay
Description: (§4) EC50 values in functional assays were also derived from automated nonlinear regression analysis of sigmoidal titration curves using the three-parameter modification of the four-parameter equation.
Chinese hamster ovary cells (CHO-K1), stably transfected with either hCB1 or hCB2, were washed two times with cold PBS, scraped from 500 cm^2 tissue culture plates, and pelleted by centrifugation at 1000×g for 10 min. The supernatant was discarded and the pellet was resuspended in Tris assay buffer (50 mM Tris HCl, pH 7.8, containing 1.0 mM EGTA, 5.0 mM MgCl2, […], and […] aprotinin), homogenized with a Polytron homogenizer (Brinkmann) at a setting of 1 for 20 sec and centrifuged at 38,000×g for 20 min at 4° C. […]
(§5) hCB1-Mediated stimulation of [^35S]GTPγS binding was measured in a mixture containing 100-150 pM [^35S]GTPγS, 150 mM NaCl, 45 mM MgCl2, […], 0.4 mM DTT, 1 mM EGTA, 1 mg/mL fatty acid free BSA, 25 μg of membrane protein and agonist in a total volume of 250 μL of buffer A in 96 well Basic Flashplates (Perkin Elmer). After incubation at room temperature for 2 hours the plates were centrifuged at 800×g at 4° C. for 5 min and the radioactivity bound to the membranes was determined by scintillation spectrometry using the Topcount (Perkin Elmer).

CB2 receptor [4] = molecular target: T1, CB2 receptor; assay: hCB2-mediated [35S]GTPγS binding; assay type: biochemical
Description: as §4, §2, §5
hCB2-Mediated [35 S]GTPγS binding was measured in the same way except the assay mixture contained […] and the incubation time was 6 hours. […] After incubation at 30° C. for 2 hours, the plates were centrifuged at 800×g at 4° C. for 5 min and the radioactivity bound to the membrane was determined by scintillation spectrometry using the Topcount (Perkin Elmer).

T1 sequence (P34972 whole entry): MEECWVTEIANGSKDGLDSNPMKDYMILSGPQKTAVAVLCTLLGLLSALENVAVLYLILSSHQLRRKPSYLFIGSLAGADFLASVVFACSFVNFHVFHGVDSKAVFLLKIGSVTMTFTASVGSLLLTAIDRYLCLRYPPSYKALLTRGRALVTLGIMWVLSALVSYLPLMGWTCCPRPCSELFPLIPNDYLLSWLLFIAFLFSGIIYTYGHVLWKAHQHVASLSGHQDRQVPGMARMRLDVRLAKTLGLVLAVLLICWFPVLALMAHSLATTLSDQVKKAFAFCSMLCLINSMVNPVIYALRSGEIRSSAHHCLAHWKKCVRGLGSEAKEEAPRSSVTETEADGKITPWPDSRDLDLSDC

Structure (SMILES)	Ki (CB2 receptor [1]) [µM]	Ki (CB1 receptor [2]) [µM]	in vitro CB1 receptor agonist activity (CB1 receptor [3])	EC50 (CB2 receptor [4]; agonist mode, read-out: in vitro CB2 receptor agonist potency (EC50)) [µM]	IC50 (CB2 receptor [4]; antagonist mode, read-out: in vitro CB2 receptor antagonist potency (IC50)) [µM]
CNc1ccc(C(=O)N[C@@H]2C(C)(C)[C@@H]3CC[C@@]2(C)C3)cc1S(=O)(=O)N(C)C [Compound 1X, 3-(N,N-dimethylsulfamoyl)-4-(methylamino)-N-((1S,2S,4R)-1,3,3-trimethylbicyclo[2.2.1]heptan-2-yl)benzamide]	0.0089	1.93	no in vitro CB1 receptor agonist activity	0.0186	
COCCNc1ccc(C(=O)NC2C(C)(C)[C@@H]3CC[C@@]2(C)C3)cc1S(=O)(=O)N1CCOCC1 (stereo partly drawn) [Compound 2D, 4-(2-methoxyethylamino)-3-(morpholinosulfonyl)-N-((1S,4R)-1,3,3-trimethylbicyclo[2.2.1]heptan-2-yl)benzamide]	0.0016	1.31			0.0085
